Results published in patent US11324725B2, “Compositions and methods for the inhibition of pruritus” (The United States of America, as represented by the …, priority 2017, dated 2022).
“Also recorded” adds a separate entry of the source.

Biological target: T1, hNpr2 (Homo sapiens, UniProt P20594)
T1 sequence (P20594 23-1047): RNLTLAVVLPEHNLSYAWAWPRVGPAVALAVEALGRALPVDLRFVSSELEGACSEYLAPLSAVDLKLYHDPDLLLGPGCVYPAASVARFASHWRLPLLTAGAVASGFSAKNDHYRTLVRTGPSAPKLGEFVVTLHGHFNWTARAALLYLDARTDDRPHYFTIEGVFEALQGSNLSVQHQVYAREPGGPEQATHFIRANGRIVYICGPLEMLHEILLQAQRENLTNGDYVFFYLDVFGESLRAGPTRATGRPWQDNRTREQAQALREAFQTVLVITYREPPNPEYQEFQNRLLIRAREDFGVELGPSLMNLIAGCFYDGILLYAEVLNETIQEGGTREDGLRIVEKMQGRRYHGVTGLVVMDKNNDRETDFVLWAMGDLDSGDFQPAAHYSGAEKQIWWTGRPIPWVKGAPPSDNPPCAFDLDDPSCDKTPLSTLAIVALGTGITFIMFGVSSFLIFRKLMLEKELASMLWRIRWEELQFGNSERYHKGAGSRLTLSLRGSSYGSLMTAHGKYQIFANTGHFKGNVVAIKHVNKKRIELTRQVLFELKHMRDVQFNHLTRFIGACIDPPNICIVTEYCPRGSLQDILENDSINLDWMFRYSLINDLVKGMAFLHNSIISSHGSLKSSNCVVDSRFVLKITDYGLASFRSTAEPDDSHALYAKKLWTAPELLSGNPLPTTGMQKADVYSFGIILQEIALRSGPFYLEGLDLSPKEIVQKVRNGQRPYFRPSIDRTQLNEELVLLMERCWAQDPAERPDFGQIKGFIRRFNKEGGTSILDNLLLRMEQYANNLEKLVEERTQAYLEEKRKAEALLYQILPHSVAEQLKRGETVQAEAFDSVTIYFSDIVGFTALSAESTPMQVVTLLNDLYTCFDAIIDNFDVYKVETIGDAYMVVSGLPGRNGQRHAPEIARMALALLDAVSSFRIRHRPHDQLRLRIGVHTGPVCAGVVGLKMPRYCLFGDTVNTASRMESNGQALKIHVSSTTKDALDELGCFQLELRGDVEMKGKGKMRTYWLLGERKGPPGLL
Experiment: Counter-screen, Nppc-stimulated HEK-hNpr2-cGMP-sensor cells
Format: cell-based
Details: for IC50 / Imax: 1 nM Nppc-stimulated; for Imax: read-out: Imax, HEK-hNpr2-cGMP-sensor cells, −100% = no agonist; for Inhibition of Nppc-induced hNpr2 activity (in words): HEK-hNpr2-cGMP-sensor cells
Description: In order to identify small molecular compounds that inhibit the Npr1 receptor a high-throughput assay to probe inhibition of the receptor guanylate cyclase Npr1 was developed. The assay was designed taking advantage of Promega's GloSensor™ technology (Promega, Madison, Wis.). This technology involves the expression of a cyclic guanosine monophosphate (cGMP) biosensor, comprised of a firefly luciferase variant that was coupled to the cGMP binding domain of human phosphodiesterase 5A, and loading of cells with a cell-permeable luciferase substrate to monitor cGMP production by Npr1 in real time in live cells. Briefly, human embryonic kidney 293 cells stably expressing the human Npr1 and the pGloSensor™-40F cGMP vector (“pGloSensor™-40F”) were generated. Stimulating these cells with the Npr1 agonists human NppA or NppB, luciferase-induced light production could be detected in a dose-dependent manner. HEK293 cells stably expressing human Npr2 and pGS-40F and cells only expressing pGS-40F were also generated to conduct secondary counter screens. In these cells, NppC or sodium nitroprusside were used to stimulate Npr2 or soluble guanylate cyclase which is endogenously expressed in HEK293 cells, respectively. The Npr2-NppC counter screen was employed to search for agents that minimally effected this agonist-receptor interaction. The Npr2-NppC system was used because the side effects of most drugs occur on related receptors. Npr1 and Npr2 are the most related receptors in sequence and function and there are no additional active receptor subtypes in this family of receptors. The procedure is described in detail below.
Counter-screens were performed with HEK293-hNpr2-cGMP-sensor and HEK293-cGMP-sensor cells. These cells were stimulated with 1 nM NppC or 50 μM sodium nitroprusside, respectively, but otherwise the assay was conducted as described for HEK-hNpr1-cGMP-sensor cells. Pre-agonist controls were the same for all three assays, but normalization of post-agonist data differed between assays. For HEK-hNpr1-cGMP-sensor cells, −100% activity in post-agonist data was defined as described for primary screening, while for HEK-hNpr2-cGMP-sensor and HEK-cGMP-sensor cells, the average signal of DMSO-treated wells with 2% GloSensor™ reagent and the respective agonist was defined as 0% and the average signal of wells without agonist as −100% activity and data were normalized accordingly. Compounds directly interacting with the pGloSensor™-40F reporter system in HEK293 cells stimulated with sodium nitroprusside were eliminated as false positives. Effects of compounds on HEK293 cells stimulated with NppC and stably expressing hNpr2 and pGS-40F were tested for receptor selectivity.

Row | Compound | IC50 | Imax | Inhibition of Nppc-induced hNpr2 activity (in words)
1 | COc1ccccc1-c1n[nH]c2ncc(C(=O)NCc3cccnc3)nc12 [JS-6, 3-(2-methoxyphenyl)-N-(pyridin-3-ylmethyl)-1H-pyrazolo[3,4-b]pyrazine-5-carboxamide] | 6.9 ± 1.1 µM | -102 ± 3% | –
2 | N#Cc1ccccc1CN1CCCC(C(=O)NCc2ccccc2)CCNC(=O)CC1 (stereo not shown) [JS-13, N-benzyl-1-(2-cyanobenzyl)-4-oxo-1,5-diazacycloundecane-8-carboxamide] | 5.9 ± 1.3 µM | -108 ± 8% | –
3 | CN(Cc1ccccc1)C(=O)c1cn2ccnc(-c3ccccc3)c2n1 [JS-14, N-benzyl-N-methyl-8-phenylimidazo[1,2-a]pyrazine-2-carboxamide] | 20 ± 1.1 µM | -91 ± 8% | –
4 | COc1ccc(C2(C(=O)N3CCC4(CC3)c3nccn3-c3ccccc3CN4C)CC2)cc1 [JS-12, (1-(4-methoxyphenyl)cyclopropyl)(5-methyl-5,6-dihydrospiro[benzo[f]imidazo[1,2-a][1,4]diazepine-4,4′-piperidin]-1′-yl)methanone] | 5.7 ± 1.1 µM | -96 ± 4% | –
5 | Cl.O=C1Nc2ccccc2CN(CC2CCCCC2)C12CCNCC2 [JS-1, 4-(cyclohexylmethyl)-4,5-dihydrospiro[benzo[e][1,4]diazepine-3,4′-piperidin]-2(1H)-one hydrochloride] | 7.2 ± 1.3 µM | -106 ± 8% | –
6 | COc1cc(CN2CCC(C)(NC(C)=O)CC2)cc(-c2ccncc2)c1 [JS-4, N-(1-(3-methoxy-5-(pyridin-4-yl)benzyl)-4-methylpiperidin-4-yl)acetamide] | 11 ± 1.2 µM | -100 ± 5% | –
7 | Cc1nn2c(c1-c1ccccc1Oc1ccccc1)N(C(=O)Cc1ccc3c(c1)OCO3)CCC2 [JS-10, 2-(benzo[d][1,3]dioxol-5-yl)-1-(2-methyl-3-(2-phenoxyphenyl)-6,7-dihydropyrazolo[1,5-a]pyrimidin-4(5H)-yl)ethan-1-one] | 5.4 ± 1.4 µM | -86 ± 5% | –
8 | Cc1nn2c(c1-c1ccccc1OCc1ccccc1)N(C(=O)Cc1ccccn1)CCC2 [JS-9, 1-(3-(2-(benzyloxy)phenyl)-2-methyl-6,7-dihydropyrazolo[1,5-a]pyrimidin-4(5H)-yl)-2-(pyridin-2-yl)ethan-1-one] | 20 ± 16 µM | -102 ± 16% | –
9 | O=C(NCc1cccnc1)c1cnc2[nH]nc(-c3ccccc3)c2n1 [JS-7, 3-phenyl-N-(pyridin-3-ylmethyl)-1H-pyrazolo[3,4-b]pyrazine-5-carboxamide] | 16 ± 1.3 µM | -122 ± 11% | –
10 | O=C(Cc1ccc(Cl)cc1)N1Cc2ccccc2CC2(CCCN2CC2CCNC2)C1 (stereo not shown) [JS-2, 2-(4-chlorophenyl)-1-(1′-(pyrrolidin-3-ylmethyl)-1,5-dihydrospiro[benzo[c]azepine-4,2′-pyrrolidin]-2(3H)-yl)ethan-1-one] | 6.4 ± 1.1 µM | -88 ± 5% | –
11 | Cc1cc(CNC(=O)c2ccc3c(c2)n(CC2CC2)c(=O)n3C2CCCCC2)on1 [JS-11, 1-cyclohexyl-3-(cyclopropylmethyl)-N-((3-methylisoxazol-5-yl)methyl)-2-oxo-2,3-dihydro-1H-benzo[d]imidazole-5-carboxamide] | 5 ± 1.1 µM | -97 ± 4% | inhibited hNpr2 with similar potency to hNpr1; also recorded: antagonizes natriuretic peptide-induced activation
12 | Cc1noc(C)c1-c1cc(-c2ccccc2Oc2ccccc2)cn2cncc12 [JS-5, 3,5-dimethyl-4-(6-(2-phenoxyphenyl)imidazo[1,5-a]pyridin-8-yl)isoxazole] | 12 ± 1.1 µM | -97 ± 4% | inhibited hNpr2 with similar potency to hNpr1; also recorded: antagonizes natriuretic peptide-induced activation
13 | CCC(CC)c1cc([C@H]2CN3CC[C@H]2C[C@@H]3CNS(=O)(=O)c2cccs2)nc(-c2ccncc2)n1 [JS-3, N-(((2R,4S,5R)-5-(6-(pentan-3-yl)-2-(pyridin-4-yl)pyrimidin-4-yl)quinuclidin-2-yl)methyl)thiophene-2-sulfonamide] | 17 ± 20 µM | -126 ± 23% | –
14 | Cc1nn2c(c1-c1ccccc1OCc1ccccc1)N(C(=O)Cc1ccc3c(c1)OCO3)CCC2 [JS-8, 2-(benzo[d][1,3]dioxol-5-yl)-1-(3-(2-(benzyloxy)phenyl)-2-methyl-6,7-dihydropyrazolo[1,5-a]pyrimidin-4(5H)-yl)ethan-1-one] | 9.1 ± 1.4 µM | -127 ± 13% | inhibited hNpr2 with similar potency to hNpr1; also recorded: antagonizes natriuretic peptide-induced activation
